Source: the Kinase Knowledgebase extract (Sharma et al. 2016)

The compounds below were run against PIK3CG (human) (UniProt P48736) (assay: Inhibition of PIK3CG Kinase Activity).
Chain of PIK3CG (human) (P48736 whole entry, looked up): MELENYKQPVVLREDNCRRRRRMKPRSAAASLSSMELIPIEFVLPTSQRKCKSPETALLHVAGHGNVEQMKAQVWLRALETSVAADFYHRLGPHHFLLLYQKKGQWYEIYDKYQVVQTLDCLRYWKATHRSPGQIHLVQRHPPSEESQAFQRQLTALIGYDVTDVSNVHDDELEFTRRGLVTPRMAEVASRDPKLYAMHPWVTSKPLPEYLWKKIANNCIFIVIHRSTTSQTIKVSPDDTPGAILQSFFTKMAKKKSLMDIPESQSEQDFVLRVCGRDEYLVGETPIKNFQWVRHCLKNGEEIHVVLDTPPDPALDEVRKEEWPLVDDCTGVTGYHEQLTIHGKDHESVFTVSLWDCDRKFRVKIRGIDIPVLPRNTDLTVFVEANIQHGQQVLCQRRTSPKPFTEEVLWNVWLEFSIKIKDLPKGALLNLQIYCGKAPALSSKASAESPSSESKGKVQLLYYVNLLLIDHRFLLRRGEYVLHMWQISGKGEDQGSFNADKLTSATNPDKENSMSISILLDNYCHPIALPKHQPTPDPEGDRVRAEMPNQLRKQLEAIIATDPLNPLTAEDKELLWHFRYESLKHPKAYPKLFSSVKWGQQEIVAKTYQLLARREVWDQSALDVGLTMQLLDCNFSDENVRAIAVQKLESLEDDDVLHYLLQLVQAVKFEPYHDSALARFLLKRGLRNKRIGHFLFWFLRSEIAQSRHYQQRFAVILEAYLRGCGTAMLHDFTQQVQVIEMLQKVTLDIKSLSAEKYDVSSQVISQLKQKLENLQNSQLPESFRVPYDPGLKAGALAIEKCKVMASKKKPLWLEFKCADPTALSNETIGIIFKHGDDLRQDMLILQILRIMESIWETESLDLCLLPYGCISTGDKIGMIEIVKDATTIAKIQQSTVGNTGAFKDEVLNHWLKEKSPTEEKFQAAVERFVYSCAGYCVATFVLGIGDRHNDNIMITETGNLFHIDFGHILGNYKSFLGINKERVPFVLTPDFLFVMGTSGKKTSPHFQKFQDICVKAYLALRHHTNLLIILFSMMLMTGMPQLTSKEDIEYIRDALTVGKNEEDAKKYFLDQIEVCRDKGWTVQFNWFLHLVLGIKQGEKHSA
In the case of CC(=O)Nc1nc2c(s1)-c1c(c(C3CC3)nn1-c1ccc(C(=O)N(C)C3CCC(N4CCCC4)CC3)c(F)c1)CC2 (centres undefined), the IC50 is reported as < 600 nM.
With CC(=O)Nc1nc2c(s1)-c1c(c(C3CCCC3)nn1-c1ccc(C(=O)N[C@H]3CC[C@@H](N4CCCCC4)CC3)cc1Cl)CC2 the IC50 was < 600 nM.
In the case of CCCN1CCC(C(=O)N2CCC(n3nc(C4CC4)c4c3-c3sc(NC(C)=O)nc3CC4)CC2)CC1, the IC50 is reported as < 600 nM.
For CCCN1CC[C@@H](NC(=O)c2ccc(-n3nc(C4CC4)c4c3-c3sc(NC(C)=O)nc3CC4)c(C)c2)C1, the IC50 was < 600 nM.
In the case of CC(=O)Nc1nc2c(s1)-c1c(c(C3CC3)nn1-c1ccc(C(=O)N(C)C[C@@H]3CCN(C4CCCC4)C3)c(Cl)c1)CC2, the IC50 is reported as < 600 nM.
For CC(=O)Nc1nc2c(s1)-c1c(c(C3CC3)nn1-c1ccc(C(=O)N(C)[C@@H]3CCN(CC4CCCC4)C3)c(C)c1)CC2, the IC50 was < 600 nM.
CC(=O)Nc1nc2c(s1)-c1c(c(C3CC3)nn1-c1ccc(C(=O)N3CC[C@@H](CN4CCCC4)C3)c(Cl)c1)CC2 was tested, and the IC50 was < 600 nM.
CC(=O)Nc1nc2c(s1)-c1c(c(C3CCC3)nn1-c1ccc(C(=O)NC3CCN(C)CC3)cc1Cl)CC2 was tested, and the IC50 was < 600 nM.
For CNC(=O)c1ccc(-n2nc(C3(C)CC3)c3c2-c2sc(NC(C)=O)nc2CC3)c(Cl)c1, the IC50 was < 600 nM.
In the case of CCN(C(=O)c1ccc(-n2nc(C3CC3)c3c2-c2sc(NC(C)=O)nc2CC3)c(F)c1)[C@H]1CC[C@@H](N2CCCC2)CC1, the IC50 is reported as < 600 nM.
For CC(=O)Nc1nc2c(s1)-c1c(c(C3CC3)nn1C1CCN(C(=O)N3CCC(N4CCCC4)CC3)CC1)CC2, the IC50 was < 600 nM.
For CC(=O)Nc1nc2c(s1)-c1c(c(C3CC3)nn1-c1ccc(C(=O)N3CCC(N4CCCC4)CC3)c(C)c1)CC2, the IC50 was < 600 nM.
CC(=O)Nc1nc2c(s1)-c1c(c(C3CC3)nn1-c1ccc(C(=O)N[C@@H]3CCN(CC4CCCC4)C3)cc1C)CC2 was tested, and the IC50 was < 600 nM.
CC(=O)Nc1nc2c(s1)-c1c(c(C3CC3)nn1-c1ccc(C(=O)NC3CCN(CC4CCCCC4)CC3)c(F)c1)CC2 was tested, and the IC50 was < 600 nM.
With CC(=O)Nc1nc2c(s1)-c1c(c(C3CC3)nn1-c1ccc(C(=O)NC3CCN(C4CCCCC4)CC3)c(C)c1)CC2 the IC50 was < 600 nM.
With CC(=O)Nc1nc2c(s1)-c1c(c(C3CCCC3)nn1-c1ccc(C(=O)N(C)[C@H]3CC[C@@H](N4CCCC4)CC3)cc1Cl)CC2 the IC50 was < 600 nM.
With CC(=O)Nc1nc2c(s1)-c1c(c(C3CC3)nn1-c1ccc(C(=O)N[C@@H]3CCN(CC4CCCC4)C3)cc1Cl)CC2 the IC50 was < 600 nM.
With CC(=O)Nc1nc2c(s1)-c1c(c(C3CC3)nn1-c1ccc(C(=O)N[C@H]3CC[C@@H](N4CCCC4)CC3)c(C)c1)CC2 the IC50 was < 600 nM.
CC(=O)Nc1nc2c(s1)-c1c(c(C3CC3)nn1[C@H]1CC[C@H](C(=O)NC3CCN(C4CCCC4)CC3)CC1)CC2 was tested, and the IC50 was < 600 nM.
For CC(=O)Nc1nc2c(s1)-c1c(c(C3CC3)nn1-c1ccc(C(=O)N[C@H]3CC[C@@H](N(C)CC4CC4)CC3)c(Cl)c1)CC2, the IC50 was < 600 nM.
CC(=O)Nc1nc2c(s1)-c1c(c(C3CC3)nn1-c1ccc(N)c(Cl)c1)CC2 was tested, and the IC50 was < 600 nM.
For CCCN1CCC(CNc2ccc(-n3nc(C4CC4)c4c3-c3sc(NC(C)=O)nc3CC4)c(Cl)c2)CC1, the IC50 was < 600 nM.
CC(=O)Nc1nc2c(s1)-c1c(c(C3CC3)nn1-c1ccc(C(=O)NCC3CCN(CC4CCCC4)CC3)cc1Cl)CC2 was tested, and the IC50 was < 600 nM.
In the case of CC(=O)Nc1nc2c(s1)-c1c(c(C3CC3)nn1-c1ccc(C(=O)N[C@@H]3CCN(CC4CCCC4)C3)c(C)c1)CC2, the IC50 is reported as < 600 nM.
For CC(=O)Nc1nc2c(s1)-c1c(c(C3CC3)nn1-c1ccc(C(=O)N(C)C3CCN(C4CCCC4)C3)c(Cl)c1)CC2 (centres undefined), the IC50 was < 600 nM.
CC(=O)Nc1nc2c(s1)-c1c(c(C3CC3)nn1-c1ccc(C(=O)N[C@H]3CCN(C4CCCC4)C3)c(Cl)c1)CC2 was tested, and the IC50 was < 600 nM.
With CC(=O)Nc1nc2c(s1)-c1c(c(C3CC3)nn1-c1ccc(C(=O)N(C)C3CCN(C4CCCC4)CC3)c(Cl)c1)CC2 the IC50 was < 600 nM.
For CC(=O)Nc1nc2c(s1)-c1c(c(C3CC3)nn1-c1ccc(C(=O)N[C@H]3CC[C@@H](N4CCCCC4)CC3)cc1Cl)CC2, the IC50 was < 600 nM.
In the case of CC(=O)Nc1nc2c(s1)-c1c(c(C3CC3)nn1-c1ccc(C(=O)NC[C@@H]3CCCN3)c(Cl)c1)CC2, the IC50 is reported as < 600 nM.
With CC(=O)Nc1nc2c(s1)-c1c(c(C3CC3)nn1-c1ccc(C(=O)N(C)[C@@H]3CCN(C4CCCC4)C3)cc1Cl)CC2 the IC50 was < 600 nM.
COc1cc(-n2nc(C3CC3)c3c2-c2sc(NC(C)=O)nc2CC3)ccc1C(=O)N(C)C1CCC(N2CCCC2)CC1 (centres undefined) was tested, and the IC50 was < 600 nM.
CC(=O)Nc1nc2c(s1)-c1c(c(C3CC3)nn1-c1ccc(C(=O)NC[C@H]3CCNC3)c(Cl)c1)CC2 was tested, and the IC50 was < 600 nM.
For CCCN1CC[C@@H](NC(=O)c2ccc(-n3nc(C4CC4)c4c3-c3sc(NC(C)=O)nc3CC4)c(Cl)c2)C1, the IC50 was < 600 nM.
With CC(=O)Nc1nc2c(s1)-c1c(c(C3CC3)nn1C1CCC(C(=O)NC3CCCCC3)CC1)CC2 (centres undefined) the IC50 was < 600 nM.
With CC(=O)Nc1nc2c(s1)-c1c(c(C3CC3)nn1-c1ccc(C(=O)NC3CCN(C4CCCC4)CC3)cc1Cl)CC2 the IC50 was < 600 nM.
In the case of CC(=O)Nc1nc2c(s1)-c1c(c(C3CC3)nn1-c1ccc(C(=O)N3CCC(N(C)C4CCCC4)CC3)c(Cl)c1)CC2, the IC50 is reported as < 600 nM.
For CCCN1CCC(NC(=O)c2ccc(-n3nc(C4CC4)c4c3-c3sc(NC(C)=O)nc3CC4)c(C)c2)CC1, the IC50 was < 600 nM.
With CC(=O)Nc1nc2c(s1)-c1c(c(C3CC3)nn1-c1ccc(C(=O)N3CCN(C4CCCC4)CC3)c(Cl)c1)CC2 the IC50 was < 600 nM.
CCCN1CCC(NC(=O)c2ccc(-n3nc(C4CC4)c4c3-c3sc(NC(C)=O)nc3CC4)cc2F)CC1 was tested, and the IC50 was < 600 nM.
CC(=O)Nc1nc2c(s1)-c1c(c(C3CC3)nn1-c1ccc(C(=O)N[C@H]3CC[C@@H](N(C)CC4CCCC4)CC3)c(F)c1)CC2 was tested, and the IC50 was < 600 nM.
For CC(=O)Nc1nc2c(s1)-c1c(c(C3CC3)nn1-c1ccc(C(=O)N3CC[C@H](CN4CCCC4)C3)c(Cl)c1)CC2, the IC50 was < 600 nM.
CC(=O)Nc1nc2c(s1)-c1c(c(C3CC3)nn1C1CCC(C(N)=O)CC1)CC2 (centres undefined) was tested, and the IC50 was < 600 nM.
CCCN1CCC(NC(=O)c2ccc(-n3nc(C4CC4)c4c3-c3sc(NC(C)=O)nc3CC4)cc2C)CC1 was tested, and the IC50 was < 600 nM.
CC(=O)Nc1nc2c(s1)-c1c(c(C3CC3)nn1-c1ccc(C(=O)N(C)[C@H]3CC[C@@H](N4CCCCC4)CC3)c(Cl)c1)CC2 was tested, and the IC50 was < 600 nM.
With CC(=O)Nc1nc2c(s1)-c1c(c(C3CCC3)nn1-c1ccc(C(=O)NC3CCN(C4CCOCC4)CC3)cc1Cl)CC2 the IC50 was < 600 nM.
In the case of CC(=O)Nc1nc2c(s1)-c1c(c(C3CC3)nn1-c1ccc(C(=O)N(C)C3CCC(N4CCCC4)CC3)cc1Cl)CC2 (centres undefined), the IC50 is reported as < 600 nM.
In the case of CC(=O)Nc1nc2c(s1)-c1c(c(C3CC3)nn1-c1ccc(C(=O)N[C@H]3CC[C@@H](N4CCCC4)CC3)c(F)c1)CC2, the IC50 is reported as < 600 nM.
CC(=O)Nc1nc2c(s1)-c1c(c(C3CC3)nn1-c1ccc(C(=O)NC3CCN(CC4CCCC4)CC3)c(C)c1)CC2 was tested, and the IC50 was < 600 nM.
For CC(=O)Nc1nc2c(s1)-c1c(c(C3CC3)nn1-c1ccc(C(=O)NC3CCN(C4CCCCC4)CC3)cc1Cl)CC2, the IC50 was < 600 nM.
In the case of CC(=O)Nc1nc2c(s1)-c1c(c(C3CC3)nn1-c1ccc(NCC3CCNCC3)cc1Cl)CC2, the IC50 is reported as < 600 nM.
With CC(=O)Nc1nc2c(s1)-c1c(c(C3CC3)nn1-c1ccc(C(=O)N(C)[C@@H]3CCN(CC4CCCC4)C3)c(Cl)c1)CC2 the IC50 was < 600 nM.
With CC(=O)Nc1nc2c(s1)-c1c(c(C3CC3)nn1C1CCN(C(=O)N3CCC(N(C)C)CC3)CC1)CC2 the IC50 was < 600 nM.
CNC(=O)Cc1ccc(-n2nc(C3CC3)c3c2-c2sc(NC(C)=O)nc2CC3)c(Cl)c1 was tested, and the IC50 was < 600 nM.
With CC(=O)Nc1nc2c(s1)-c1c(c(C3CC3)nn1-c1ccc(NCC3CCN(C(=O)OC(C)(C)C)CC3)cc1Cl)CC2 the IC50 was < 600 nM.
